By stoichiometry N is commonly meant the number of molecules, sites or subunits per partner or assembly.

The text below walks through data of publication PMC5520216, “Frutapin, a lectin from Artocarpus incisa (breadfruit): cloning, expression and molecular insights” (Bioscience Reports, 2017).

Experiment [1] has as its target T1, Frutapin (FTP), recombinant (Artocarpus altilis, UniProt A0A2D0TC52).
T1 construct: full-length FTP (450 bp clone from leaf cDNA, codon-optimised ORF), pET SUMO in E. coli BL21, His-SUMO tag cut off with ULP1
The experiment in a line: X-ray co-crystal structure, […] Å. The note with it: co-crystallised with 100 mM glucose, glycerol removed; carbohydrate-binding site of all four monomers.

Experiment [2] addresses T1, Frutapin (FTP), recombinant. The experiment in a line: X-ray co-crystal structure, […] Å. The following applies: co-crystallised with 20 mM mannose, glycerol removed; carbohydrate-binding site of all four monomers.
Experiment [3] shares this target. Nature of the experiment: inhibition of haemagglutination of red blood cells, double serial dilution. The following applies: 37 °C, 1 h, visual read-out, carbohydrate-binding site. It counts as cell-based.
Experiment [4] concerns the target Frutapin (FTP), recombinant, mannose-binding lectin from Artocarpus incisa (breadfruit) (Artocarpus incisa (breadfruit)). Nature of the experiment: native gel or EMSA; native gel electrophoresis of purified FTP after removal of the SUMO tag; size from a plot of Rf against log10 (MWt). (Mobility shift assays separate free from complexed probe on a gel.)

T1 sequence (A0A2D0TC52 entry or part of it): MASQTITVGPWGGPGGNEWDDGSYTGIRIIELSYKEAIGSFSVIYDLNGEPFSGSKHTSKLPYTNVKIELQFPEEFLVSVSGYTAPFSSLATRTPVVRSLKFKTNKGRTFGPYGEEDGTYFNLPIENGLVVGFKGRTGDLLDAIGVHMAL

In the case of `OC[C@H]1O[C@H](O)[C@H](O)[C@@H](O)[C@@H]1O` [α-D-glucose], the “X-ray co-crystal structure, 1.60 Å” value in experiment [1] is “FTP was also co-crystallized with mannose and glucose”.

`OC[C@H]1O[C@H](O)[C@@H](O)[C@@H](O)[C@@H]1O` [α-D-mannose]: the “X-ray co-crystal structure, 1.70 Å” value in experiment [2] is “FTP was also co-crystallized with mannose and glucose”. As to `OC[C@H]1OC(O)[C@H](O)[C@@H](O)[C@@H]1O` (some centres unmarked) [glucose], the inhibitory sugar concentration in experiment [3] (42.8 µg/ml FTP) turned out to be 100 mM. Take “Frutapin (FTP), recombinant, mannose-binding lectin from Artocarpus incisa (breadfruit) (natural protein)”: in experiment [4], the stoichiometry N turned out to be 4. `OC[C@H]1OC(O)[C@@H](O)[C@@H](O)[C@@H]1O` (some centres unmarked) [mannose]: the inhibitory sugar concentration in experiment [3] (12.4 µg/ml FTP) is listed as 6.25 mM.
